{"source": "patent US20050272712A1", "about": "“Compositions and methods for treatment of premenstrual dysphoric disorder” (Wyeth, priority 2004, published 2005)", "origin": "cited, not measured here", "details": "daily dose of either 20 mg or 60 mg; Steiner et al. 1995", "data": [{"smiles": "CNCCC(Oc1ccc(C(F)(F)F)cc1)c1ccccc1", "note": "(stereo not shown) [fluoxetine]", "values": [{"measurement": "reduction of symptoms versus placebo", "result": "superior to placebo in reducing symptoms"}]}]}
